{
  "source": "patent US9339508B2",
  "about": "“Use of 3-methoxy-pregnenolone for the preparation of a drug for treating a traumatic brain injury” (MAPREG, priority 2003, dated 2016)",
  "key": {"[1]": {"tested_on": "GFAP", "experiment": "GFAP immunohistochemistry after Lateral Fluid Percussion (LFP)", "format": "in vivo, rat", "text": "After anesthesia induction, the animal was placed on a stereotaxic frame. To expose the dura mater, craniotomy (diameter 5 mm) was under the left parietal cortex (−3.6 mm from Bregma, −3.0 mm from midline). A female Luer-Lock was placed over the craniotomy and was secured to the parietal bone with dental cement. The Luer-Lock was then filled with isotonic saline to create an interface with the dura meter.\nTrauma was induced by a fluid percussion device (Custom Design and Manufacturing, United. Kingdom) (Besson et al., 2003) it is a cylindrical tank (60 cm long), with a piston on one side, over which a hammer exercises a constraint, and a male Luer-Lock on the other side. […] The amplitude of each shock wave was measured via a pressure transducer connected to the terminal portion of the device. The pressure signal was recorded on an oscilloscope. […]\nAfter mounting on Superfrost slides, frozen sections were dried for 90 minutes at room temperature and stored at −80° C. until use. […] Immunostaining was quantitatively assessed by optical density measurements directly from the section image (Image J). […]\nGFAP expression was measured by immunohistochemistry at day 35 post-trauma in injured and uninjured cortex, thalamus and hippocampus of LFP traumatized, rats treated with vehicle (sesame oil), or 3-methoxy-PREG (MAP4343) at 10 mg/kg or 20 mg/kg, with first injection at 2 hours post-trauma."}, "[2]": {"target": "purified tubulin and MAP2 (Homo sapiens, UniProt P11137)", "sequence (P11137 whole entry)": "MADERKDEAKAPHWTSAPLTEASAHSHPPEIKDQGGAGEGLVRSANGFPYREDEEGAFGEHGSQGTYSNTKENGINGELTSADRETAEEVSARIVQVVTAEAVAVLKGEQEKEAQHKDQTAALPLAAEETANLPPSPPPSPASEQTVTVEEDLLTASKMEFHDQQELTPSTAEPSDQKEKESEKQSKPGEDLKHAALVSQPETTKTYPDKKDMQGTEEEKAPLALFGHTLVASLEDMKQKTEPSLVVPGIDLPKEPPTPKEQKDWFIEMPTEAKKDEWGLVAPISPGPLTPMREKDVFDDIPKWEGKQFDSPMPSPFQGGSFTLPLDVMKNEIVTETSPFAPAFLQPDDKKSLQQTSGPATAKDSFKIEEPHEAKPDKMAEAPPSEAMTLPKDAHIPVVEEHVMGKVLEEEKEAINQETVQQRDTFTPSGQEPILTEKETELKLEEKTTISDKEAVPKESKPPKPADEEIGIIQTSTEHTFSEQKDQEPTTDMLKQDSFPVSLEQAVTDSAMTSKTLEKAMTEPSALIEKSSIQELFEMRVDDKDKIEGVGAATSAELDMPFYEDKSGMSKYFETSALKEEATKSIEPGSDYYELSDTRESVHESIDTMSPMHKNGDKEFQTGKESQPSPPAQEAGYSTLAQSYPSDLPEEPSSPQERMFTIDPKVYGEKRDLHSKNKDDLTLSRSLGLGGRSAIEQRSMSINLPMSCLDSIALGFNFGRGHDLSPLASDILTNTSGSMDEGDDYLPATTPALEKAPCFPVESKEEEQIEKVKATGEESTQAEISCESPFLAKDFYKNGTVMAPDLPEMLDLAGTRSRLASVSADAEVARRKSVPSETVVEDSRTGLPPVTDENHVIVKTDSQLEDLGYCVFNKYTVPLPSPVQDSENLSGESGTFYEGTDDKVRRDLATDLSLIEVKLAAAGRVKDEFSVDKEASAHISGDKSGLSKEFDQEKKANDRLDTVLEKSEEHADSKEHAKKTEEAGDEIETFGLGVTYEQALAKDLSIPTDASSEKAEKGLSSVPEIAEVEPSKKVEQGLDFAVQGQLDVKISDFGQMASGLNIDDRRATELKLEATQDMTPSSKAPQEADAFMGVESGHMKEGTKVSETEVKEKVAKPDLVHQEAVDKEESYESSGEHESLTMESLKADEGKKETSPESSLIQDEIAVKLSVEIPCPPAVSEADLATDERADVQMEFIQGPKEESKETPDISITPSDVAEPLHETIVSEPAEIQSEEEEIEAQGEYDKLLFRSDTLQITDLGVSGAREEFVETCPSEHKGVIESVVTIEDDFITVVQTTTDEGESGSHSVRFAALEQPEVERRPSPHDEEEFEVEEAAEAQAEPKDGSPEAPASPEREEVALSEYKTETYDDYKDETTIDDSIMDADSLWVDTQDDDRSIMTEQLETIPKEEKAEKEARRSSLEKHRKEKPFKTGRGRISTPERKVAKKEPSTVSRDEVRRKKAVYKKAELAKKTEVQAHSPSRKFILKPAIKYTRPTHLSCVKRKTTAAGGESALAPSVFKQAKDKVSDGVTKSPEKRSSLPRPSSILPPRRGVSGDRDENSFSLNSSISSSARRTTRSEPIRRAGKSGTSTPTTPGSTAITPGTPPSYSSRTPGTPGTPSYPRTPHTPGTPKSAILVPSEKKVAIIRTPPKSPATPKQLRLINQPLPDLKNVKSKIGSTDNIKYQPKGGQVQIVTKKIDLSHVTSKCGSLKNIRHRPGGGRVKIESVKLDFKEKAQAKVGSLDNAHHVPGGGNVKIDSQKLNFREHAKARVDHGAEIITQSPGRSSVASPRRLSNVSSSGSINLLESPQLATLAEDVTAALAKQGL", "experiment": "MAP2-induced polymerization of microtubules in vitro (optical density at 345 nm)", "format": "biochemical", "experimental": "Purified MAP2 and tubulin are mixed in the presence of GTP at 4° C. in a spectrophotometer cuvette. Polymerization is induced by heating at 37° C. and is followed by the increase in optical density (OD) which indicates the quantity of polymers formed.\nThis in vitro test measures the effect of molecules on the MAP2-induced polymerization of microtubules. This polymerization occurs when MAP2 proteins and tubulin are mixed at adequate concentrations in the presence of GTP. It is accompanied by an increase in optical density measured at 345 nm for 15 to 30 minutes with a UNICON spectrophotometer thermostated at 37° C. (FIG. 1).\nActivity is measured by the increase in optical density at 345 nm of a mixture of purified tubulin and MAP2, incubated at 37° C. in the presence of GTP."}, "[3]": {"tested_on": "α-tubulin in rat hippocampus", "experiment": "Microtubule dynamics in rat hippocampus (Tyr/Glu-Tub ratio, Acet-Tub)", "format": "in vivo", "settings": "10 mg/kg subcutaneously, single administration", "text": "Mean±SEM, n=6 per group. **P<0.01, *P<0.5 vs sesame oil.\nThe effects produced by neurosteroids were compared with those produced by acute administration of the antidepressant drug fluoxetine (selective serotonin reuptake inhibitor SSRI).\nNeurosteroids and 3-Methoxy-PREG (43B) Levels"}, "[4]": {"settings": "40 μM, compared to solvent alone"}},
  "data": [
    {"compound": "CO[C@H]1CC[C@@]2(C)C(=CC[C@H]3[C@@H]4CC[C@H](C(C)=O)[C@@]4(C)CC[C@@H]32)C1", "note": "[3-methoxy-PREG, 3β-methoxy-pregna-5-ene-20-one]", "values": [
      {"measurement": "astrocytes GFAP immunoreactivity in the injured cortex", "setting": "[1]; day 35, 10 mg/kg or 20 mg/kg, first injection 2 hours post-trauma", "result": "highly decreased"},
      {"measurement": "astrocytes immunoreactivity in the injured thalamus", "setting": "[1]; day 35, especially Dose2 (20 mg/kg)", "result": "strongly decreases astrocytes immunoreactivity"},
      {"measurement": "microtubule polymerization", "setting": "[2]", "result": "activates microtubule polymerization"},
      {"measurement": "Lag time of microtubule polymerization", "setting": "[2]; [4]", "result": "decreased"},
      {"measurement": "polymerization rate and quantity of microtubules", "setting": "[2]; [4]", "result": "clearly increase"},
      {"measurement": "Acet-Tub (stable acetylated α-tubulin)", "setting": "[3]", "result": "significantly decreased"},
      {"measurement": "Tyr/Glu-Tub ratio", "setting": "[3]; 3 h", "result": "significantly increased"}
    ]}
  ]
}
